{"source": "patent EP0043274A2", "about": "“Antithrombotic treatment” (priority 1980, dated 1982)", "key": {"[1]": {"test_system": "platelet rich plasma", "test": "Platelet aggregation in platelet rich plasma from injected rabbit (ex vivo)", "conditions": "injected with about 72 mg/kg of body weight; blood sample after 5 hours", "protocol": "A rabbit is injected with about +72 mg/kg of body weight of triethyl amine bisulfite. After a period of 5 hours, a blood sample was withdrawn and centrifuged at 1000 r.p.m. (220 g) for 10 minutes to give a platelet rich plasma. […] It is concluded that triethyl amine bisulfite is an agent which inhibits thrombotic condition formation in vivo.\nA rabbit is injected with about 72 mg/kg of body weight of sodium formaldehyde bisulfite. After a period of 5 hours, a blood sample was withdrawn and centrifuged at 1000 r.p.m. (220 g) for 10 minuts to give a platelet rich plasma. […] It is concluded that sodium formaldehyde bisulfite is an agent which inhibits thrombus formation in vivo."}, "[2]": {"target": "T1, FIBRINOGEN (Homo sapiens, UniProt P02671+P02675+P02679)", "T1 construct": "from tissue; host or cells: human plasma", "T1 sequence (P02671 20-629 limits assumed)": "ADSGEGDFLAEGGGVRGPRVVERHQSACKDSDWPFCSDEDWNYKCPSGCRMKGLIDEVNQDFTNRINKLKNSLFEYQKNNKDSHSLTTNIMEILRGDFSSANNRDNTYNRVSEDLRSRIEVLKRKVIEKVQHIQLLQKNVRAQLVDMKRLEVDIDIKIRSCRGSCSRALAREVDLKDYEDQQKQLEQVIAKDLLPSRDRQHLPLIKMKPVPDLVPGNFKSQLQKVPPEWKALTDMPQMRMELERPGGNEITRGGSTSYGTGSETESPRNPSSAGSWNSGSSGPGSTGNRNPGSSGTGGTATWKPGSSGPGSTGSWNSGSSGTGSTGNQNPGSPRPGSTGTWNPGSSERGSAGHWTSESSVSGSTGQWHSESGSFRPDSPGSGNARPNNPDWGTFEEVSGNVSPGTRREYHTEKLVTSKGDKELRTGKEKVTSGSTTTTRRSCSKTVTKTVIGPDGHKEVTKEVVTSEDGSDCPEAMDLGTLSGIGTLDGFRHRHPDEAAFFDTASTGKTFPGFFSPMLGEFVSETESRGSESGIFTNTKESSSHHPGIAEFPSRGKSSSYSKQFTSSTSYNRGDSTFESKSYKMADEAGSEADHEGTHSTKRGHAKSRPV", "T1 sequence (P02675 31-491)": "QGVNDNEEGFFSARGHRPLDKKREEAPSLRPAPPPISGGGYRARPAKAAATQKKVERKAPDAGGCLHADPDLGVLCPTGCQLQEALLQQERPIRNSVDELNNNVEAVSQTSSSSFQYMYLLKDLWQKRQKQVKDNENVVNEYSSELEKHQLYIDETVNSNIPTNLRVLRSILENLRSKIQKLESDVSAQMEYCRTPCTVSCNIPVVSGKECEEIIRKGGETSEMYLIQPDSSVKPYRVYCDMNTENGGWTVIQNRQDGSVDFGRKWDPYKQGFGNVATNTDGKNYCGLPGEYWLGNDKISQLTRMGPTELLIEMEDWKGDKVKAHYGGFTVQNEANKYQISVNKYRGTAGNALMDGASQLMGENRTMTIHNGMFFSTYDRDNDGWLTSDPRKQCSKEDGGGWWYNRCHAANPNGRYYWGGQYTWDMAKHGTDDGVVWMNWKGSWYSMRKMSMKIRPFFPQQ", "T1 sequence (P02679 27-453)": "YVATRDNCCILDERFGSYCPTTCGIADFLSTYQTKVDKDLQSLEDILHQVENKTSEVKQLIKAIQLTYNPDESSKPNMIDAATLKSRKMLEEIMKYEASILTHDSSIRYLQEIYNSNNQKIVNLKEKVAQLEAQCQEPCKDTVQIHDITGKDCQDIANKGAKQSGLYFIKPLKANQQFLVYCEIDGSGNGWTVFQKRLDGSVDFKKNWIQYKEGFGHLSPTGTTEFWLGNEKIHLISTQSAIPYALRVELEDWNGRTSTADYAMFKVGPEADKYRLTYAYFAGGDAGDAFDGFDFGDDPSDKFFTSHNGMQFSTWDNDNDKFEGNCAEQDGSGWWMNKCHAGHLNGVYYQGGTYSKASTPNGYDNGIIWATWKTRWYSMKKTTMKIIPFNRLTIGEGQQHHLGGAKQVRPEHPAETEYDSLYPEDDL", "test": "Coagulation factor assay (Biggs): fibrinogen", "assay_type": "biochemical", "conditions": "mean of 2 experiments; control 205"}, "[3]": {"test_system": "human plasma", "test": "Thrombin time (TT) in vitro, standard method", "assay_type": "biochemical", "conditions": "U.S.P. grade, control 12.00", "protocol": "(§1) The effect of U.S.P. grade sodium bisulfite on blood coagulation factors is evaluated by standard procedures (Biggs) and the results are shown in Table III below."}, "[4]": {"target": "T2, PROTHROMBIN (Homo sapiens, UniProt P00734)", "T2 construct": "from tissue; host or cells: human plasma", "test": "Coagulation factor assay (Biggs): prothrombin (Factor II)", "assay_type": "biochemical", "conditions": "for PROTHROMBIN (%): U.S.P. grade, control 87", "protocol": "as §1\n(§2) References for PT, PTT, and assays of all the coagulation factors can be found in a standard textbook, entitled \"Human Blood Coagulation, Haemostasis and Thrombosis\", edited by Rosemary Biggs, published by Blackwell Scientific Publications, Oxford, England (2nd edition), pages 670-705, 1976."}, "[5]": {"target": "T3, FACTOR V (Homo sapiens, UniProt P12259)", "T3 construct": "from tissue; host or cells: human plasma", "T3 sequence (P12259 29-2224)": "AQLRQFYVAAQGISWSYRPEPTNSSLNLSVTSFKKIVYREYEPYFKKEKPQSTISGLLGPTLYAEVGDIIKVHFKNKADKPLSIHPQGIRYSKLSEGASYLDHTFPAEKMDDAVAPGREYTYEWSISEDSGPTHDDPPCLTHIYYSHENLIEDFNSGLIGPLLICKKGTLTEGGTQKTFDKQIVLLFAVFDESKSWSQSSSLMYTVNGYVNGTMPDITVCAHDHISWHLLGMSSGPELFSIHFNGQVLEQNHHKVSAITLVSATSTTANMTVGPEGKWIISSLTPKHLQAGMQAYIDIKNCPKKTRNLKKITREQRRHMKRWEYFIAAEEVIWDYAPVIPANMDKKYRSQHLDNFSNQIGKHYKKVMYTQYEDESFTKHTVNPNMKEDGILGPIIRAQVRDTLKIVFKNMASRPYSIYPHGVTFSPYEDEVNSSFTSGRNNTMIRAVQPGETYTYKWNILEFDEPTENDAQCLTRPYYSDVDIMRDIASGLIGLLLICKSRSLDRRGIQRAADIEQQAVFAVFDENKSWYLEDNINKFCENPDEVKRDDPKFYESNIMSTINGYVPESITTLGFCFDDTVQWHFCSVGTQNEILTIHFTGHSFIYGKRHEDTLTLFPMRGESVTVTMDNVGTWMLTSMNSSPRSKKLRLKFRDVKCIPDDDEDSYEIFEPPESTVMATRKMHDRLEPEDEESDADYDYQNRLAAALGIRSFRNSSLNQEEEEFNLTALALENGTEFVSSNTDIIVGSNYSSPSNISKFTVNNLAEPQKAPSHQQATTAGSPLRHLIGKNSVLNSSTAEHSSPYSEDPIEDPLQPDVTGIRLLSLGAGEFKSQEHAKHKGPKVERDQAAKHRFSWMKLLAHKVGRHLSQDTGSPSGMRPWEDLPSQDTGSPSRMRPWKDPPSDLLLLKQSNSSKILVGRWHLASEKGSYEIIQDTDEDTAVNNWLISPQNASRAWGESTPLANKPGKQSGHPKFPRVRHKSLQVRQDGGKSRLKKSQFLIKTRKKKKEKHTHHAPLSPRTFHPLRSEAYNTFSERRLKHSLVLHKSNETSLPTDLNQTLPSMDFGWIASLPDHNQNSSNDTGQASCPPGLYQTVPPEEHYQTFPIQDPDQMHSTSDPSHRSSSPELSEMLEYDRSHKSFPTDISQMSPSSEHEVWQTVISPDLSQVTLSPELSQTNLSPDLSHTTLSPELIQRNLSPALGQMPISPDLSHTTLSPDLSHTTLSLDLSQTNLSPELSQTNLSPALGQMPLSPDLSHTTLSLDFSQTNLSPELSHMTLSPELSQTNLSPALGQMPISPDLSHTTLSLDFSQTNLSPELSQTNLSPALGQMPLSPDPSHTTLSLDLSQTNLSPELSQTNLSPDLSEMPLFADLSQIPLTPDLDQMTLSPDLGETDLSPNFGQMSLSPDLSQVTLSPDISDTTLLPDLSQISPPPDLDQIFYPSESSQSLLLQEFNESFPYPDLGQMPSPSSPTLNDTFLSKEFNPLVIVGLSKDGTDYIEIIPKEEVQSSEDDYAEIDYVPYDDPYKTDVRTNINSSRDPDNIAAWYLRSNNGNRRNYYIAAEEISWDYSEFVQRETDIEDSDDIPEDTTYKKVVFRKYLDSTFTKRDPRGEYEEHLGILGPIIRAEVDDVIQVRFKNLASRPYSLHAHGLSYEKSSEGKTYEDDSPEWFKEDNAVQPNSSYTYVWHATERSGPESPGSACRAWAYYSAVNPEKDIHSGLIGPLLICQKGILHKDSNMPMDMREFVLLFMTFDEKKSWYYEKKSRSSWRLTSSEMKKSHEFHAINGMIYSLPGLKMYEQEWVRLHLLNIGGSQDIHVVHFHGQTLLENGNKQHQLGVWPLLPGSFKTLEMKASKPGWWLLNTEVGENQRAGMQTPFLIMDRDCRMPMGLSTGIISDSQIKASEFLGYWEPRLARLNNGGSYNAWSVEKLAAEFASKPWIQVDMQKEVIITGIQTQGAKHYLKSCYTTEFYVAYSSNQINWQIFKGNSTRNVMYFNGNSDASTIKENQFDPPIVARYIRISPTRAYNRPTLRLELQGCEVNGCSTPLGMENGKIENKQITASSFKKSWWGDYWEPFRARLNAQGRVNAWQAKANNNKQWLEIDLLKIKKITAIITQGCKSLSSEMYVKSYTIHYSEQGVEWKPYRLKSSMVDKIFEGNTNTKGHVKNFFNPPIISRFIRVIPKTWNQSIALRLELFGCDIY", "test": "Coagulation factor assay (Biggs): Factor V", "assay_type": "biochemical", "conditions": "U.S.P. grade, control 75", "protocol": "as §1, §2"}, "[6]": {"test_system": "blood", "test": "Storage of blood samples with added sodium bisulfite solution", "parameters": "species or system human", "conditions": "about 4 cc blood + about 10 drops of 10 weight percent solution; about 2 1/2 years at ambient temperatures", "protocol": "Samples of about 4 cc each of blood were prepared. To each of these was added about 10 drops of a solution 10 weight percent and sodium bisulfite in distilled water. Each sample was then sealed into a glass vial."}}, "data": [{"compound": "CCN(CC)CC.O=S(O)O", "note": "[TRIETHYL AMINE BISULFITE, triethyl amine bisulfite]", "values": [{"measurement": "aggregation of platelets in comparison with an untreated rabbit", "setting": "[1]", "result": "markedly decreased"}]}, {"compound": "C[N+](C)(C)C", "note": "[Tetramethyl-ammonium bisulfite]", "values": [{"measurement": "Fibrinogen (%)", "setting": "[2]", "result": 170, "unit": "%"}]}, {"compound": "Sodium bisulfite", "values": [{"measurement": "TT", "setting": "[3]; 0.01 mg/ml", "result": 12.07, "unit": "s"}, {"measurement": "TT", "setting": "[3]; 0.05 mg/ml", "result": 12.10, "unit": "s"}, {"measurement": "TT", "setting": "[3]; 0.1 mg/ml", "result": 12.00, "unit": "s"}, {"measurement": "TT", "setting": "[3]; 0.5 mg/ml", "result": 13.97, "unit": "s"}, {"measurement": "TT", "setting": "[3]; 1.0 mg/ml", "result": 16.08, "unit": "s"}, {"measurement": "TT", "setting": "[3]; 5.0 mg/ml", "result": 34.3, "unit": "s"}, {"measurement": "effect on Factor II", "setting": "[4]", "result": "mildly affected"}, {"measurement": "PROTHROMBIN (%)", "setting": "[4]; 0.01 mg/ml", "result": 79, "unit": "%"}, {"measurement": "PROTHROMBIN (%)", "setting": "[4]; 0.05 mg/ml", "result": 80, "unit": "%"}, {"measurement": "PROTHROMBIN (%)", "setting": "[4]; 0.1 mg/ml", "result": 72, "unit": "%"}, {"measurement": "PROTHROMBIN (%)", "setting": "[4]; 0.5 mg/ml", "result": 40, "unit": "%"}, {"measurement": "PROTHROMBIN (%)", "setting": "[4]; 1.0 mg/ml", "result": 26, "unit": "%"}, {"measurement": "PROTHROMBIN (%)", "setting": "[4]; 5.0 mg/ml", "result": 5, "unit": "%"}, {"measurement": "FACTOR V (%)", "setting": "[5]; 0.01 mg/ml", "result": 74, "unit": "%"}, {"measurement": "FACTOR V (%)", "setting": "[5]; 0.05 mg/ml", "result": 72, "unit": "%"}, {"measurement": "FACTOR V (%)", "setting": "[5]; 0.1 mg/ml", "result": 80, "unit": "%"}, {"measurement": "FACTOR V (%)", "setting": "[5]; 0.5 mg/ml", "result": 70, "unit": "%"}, {"measurement": "FACTOR V (%)", "setting": "[5]; 1.0 mg/ml", "result": 60, "unit": "%"}, {"measurement": "FACTOR V (%)", "setting": "[5]; 5.0 mg/ml", "result": 54, "unit": "%"}, {"measurement": "coagulation of stored blood samples", "setting": "[6]", "result": "have not coagulated"}]}]}
